Assay [1] relates to T24 cells. Briefly: Mitomycin C IC50, T24 cells. In kind it is cell-based, Human. The note with it: 1x fold IC50 treatment concentration.
Assay [2] deals with 5637 cells. Briefly: Mitomycin C IC50, 5637 cells. In kind it is cell-based, Human. The note with it: 1x fold IC50 treatment concentration.
Assay [3] relates to KU19-19 cells. The experiment in a line: Mitomycin C IC50, KU19-19 cells. In kind it is cell-based, Human. The note with it: 1x fold IC50 treatment concentration.
Assay [4] relates to ICAM-1. Briefly: QPCR for ICAM-1 expression after Mitomycin C. In kind it is cell-based, Human. The note with it: 5637 cancer cell line exposed to Mitomycin C. How it is done:
(§1) FIGS. 4A-B: QPCR for ICAM-1/DAF expression. FIG. 4a) On 5637 & T24 cancer cell lines 24 hrs after irradiation (Gy 4-10). FIG. 4b) On 5637 cancer cell line exposed to Mitomycin C.
(§2) Exposure to the chemotherapy agent Mitomycin C, up-regulates both ICAM-1 and DAF at the RNA level (FIG. 4b). To mimic patient exposure to Mitomycin C T24, RU19-19 and 5637 cells were pulsed with drug for 1, 3, 7, 24 hrs and ICAM-1 and DAF expression was measured by FACS analysis at 24 hrs.

For assay [5], the system named is DAF. Briefly: QPCR for DAF expression after Mitomycin C. In kind it is cell-based, Human. The settings on record: 5637 cancer cell line exposed to Mitomycin C. The protocol: as §1, §2
The test system of assay [6] is ICAM-1. The experiment in a line: FACS analysis of ICAM-1 (CD54) expression after Mitomycin C pulse. The assay is classed as cell-based, Human. How it is done:
(§3) FIG. 5: FACS analysis of ICAM-1/DAF express in bladder cancer cell line pulse with Mitomycin C (×0.5 fold IC50×1, ×2) for 1, 3, 7 and 24 hrs.
(§4) In brief, bladder cancer cells were plated at 5×10^5 cells per well (2 ml) of a 6 well tray and incubated at 37° C. for 24 hrs. The cells were treated with Mitomycin C (2× fold IC50 1× fold IC50, 0.5× fold IC50) and each concentration incubated at 37° C. for 1, 3, 7 and 24 hrs. Therefore T24 cells were treated 0.75, 0.375, 0.1876 ug/ml Mitomycin C, 5637 cells were treated with 0.68, 0.34, 0.17 ug/ml Mitomycin C and KU19-19 cells were treated with 1.4876, 0.7438, 0.3719 ug/ml. The cells were trypsinised and centrifuged for 3 mins at 1500 rpm to a pellet and re-suspended in FACS Buffer (PBS containing 10% BSA and 1% sodium azide). 100 ul of cells were added to appropriate wells in a 96-well round-bottomed plate. Antibodies were prepared at 1:10 in FACS buffer CD54 PE (BD: 347977) mIgG2b, CD55 PE (BD: 555694) mIgG2a and Isotype controls. […] Samples were read on a MACSQuant™ Analyzer (Bench top flow cytometer).
as §2
(In general: In flow cytometry, cells or beads pass a laser one at a time.)

The test system of assay [7] is DAF. The experiment in a line: FACS analysis of DAF (CD55) expression after Mitomycin C pulse. The assay is classed as cell-based, Human. The note with it: T24, RU19-19 and 5637 cells; short pulse (1-3 hrs); measured at 24 hrs. How it is done:
as §3, §4, §2

In assay [8] the test system is CVA21. The experiment in a line: CVA21 viral replication in 5637 cells on exposure to MMC (TCID50 titration on SK-MEL-28). In kind it is cell-based. The settings on record: CVA21 MOI 3, 0.4375 or 0.875 ug/ml Mitomycin C, 24 or 48 hours. How it is done:
Monolayers of 5637 bladder cancer cells were plated and incubated at 37° C./5% CO2 overnight. The media was removed, and CVA21 added at an MOI of 3 in 10% FCS medium containing 0, 0.4375 or 0.875 ug/ml Mitomycin C. The cells were then incubated at 37° C. for 24 or 48 hours. The plates were then frozen at −80° C. for 1 hour or o/n and then thawed after which cell CVA21 lysate was serially diluted 1:10 in 2% DMEM. The different concentrations of lysate were then added to SK-MEL-28 cells which had previously been plated at 1×10^4 cells per well (100 μL) in a 96 well plate in 10% DMEM. The assay was then incubated at 37° C. for 5 days, after which the media was removed from the cells and 100 ul of 0.1% Glutaldehyde (Sigma) in PBS was added. After an incubation of 10 mins at RT, the Glutaldehyde solution was removed and 100 ul of 0.1% w/v Crystal Violet solution (in 20% Ethanol) was added in order to visualise the cells. Following another incubation of 10 mins at RT the excess Crystal Violet was removed with tap water. TCID50 was calculated by the Spearman & Kärber algorithm as described in Hierholzer & Killington (1996), Virology Methods Manual, p. 374.

SMILES strings stand for the structures. Converted amounts (≈) assume the structure as drawn.

Regarding `CO[C@@]12[C@H](COC(N)=O)C3=C(C(=O)C(C)=C(N)C3=O)N1C[C@@H]1N[C@@H]12` [Mitomycin C, mitomycin C], the IC50 in assay [1] came out at 0.375 µg/mL (≈ 1.12 µM); in assay [2] it was 0.34 µg/mL (≈ 1.02 µM); in assay [3], 0.7438 µg/mL (≈ 2.22 µM). Moreover, the “ICAM-1 expression at the RNA level” value in assay [4] is given as “up-regulates”. For the same molecule, in assay [5], the “DAF expression at the RNA level” value is “up-regulates”. For the same molecule, the “ICAM-1 expression by FACS” value in assay [6] (T24, RU19-19 and 5637 cells, short pulse (1-3 hrs), measured at 24 hrs) is “strongly amplified”. For the same molecule, the ICAM-1 amplification result in assay [6] (one hour pulse of MMC, present from at least 4 hours after exposure) is “strong ICAM-1 amplification”. Also, the “DAF expression by FACS” value in assay [7] was “strongly amplified”. Also, in assay [8], the “effect on CVA21 viral replication” value is recorded as “enhanced viral replication”.

As usually defined, the IC50 is the point on the concentration scale where inhibition reaches its midpoint.

The values above are taken from US20190134120A1, “METHODS FOR THE TREATMENT OF BLADDER CANCER” (Viralytics Limited, priority 2013, published 2019).
